# Reference: US20260000674A1, “PHARMACEUTICAL COMPOSITION” (GEXVal Inc., priority 2022, published 2026)
# Where a name gives a salt, the structure may show the parent alone.
# Tested on: dermatitis in psoriasis model mice
# Assay: Auricular thickening in imiquimod-induced psoriasis model mice (Test Examples 1 to 7)
# Format: in vivo, male BALB/cCrSlc mice
# Conditions: oral, Day 0 to Day 3
# Description: 15 mg/ear of imiquimod cream (product name: Beselna cream, manufactured by Mochida Pharmaceutical Co., Ltd.) was repeatedly applied to the right auricle of male BALB/cCrSlc mice (9 weeks old) at once a day for 4 days (Day 0 to Day 3) to prepare psoriasis model mice. One hour before the imiquimod application, Vehicle (0.5% methylcellulose (hereinafter abbreviated as 0.5% MC)), 3 mg/kg body weight MSP (5-HT4 receptor agonist), 3 mg/kg body weight RZT (5-HT1 receptor agonist), 3 mg/kg body weight TDS (5-HT1 receptor agonist), 3 mg/kg body weight LCS (5-HT2 receptor agonist), and 10 mg/kg body weight APR (positive control) were orally administered at 10 mL/kg body weight each (Day 0 to Day 3) (n=6 per administration group). The auricular thickness was measured before the imiquimod cream application (Day 0) and approximately 24 hours after the final administration of each evaluation substance (Day 1 to Day 4), and the difference in auricular thickness (auricular thickening) between Day 0 and Day 4 was evaluated as the degree of inflammation. Day 0 was defined as the day on which the imiquimod cream application was started.
# (§1) Psoriasis model mice were prepared by the same method as in Test Example 1, and Vehicle (0.5% MC), 3 mg/kg body weight MSP, 30 mg/kg body weight MSP, and 10 mg/kg body weight APR (positive control) were orally administered at 10 mL/kg body weight each (Day 0 to Day 3) (n=6 per administration group). The difference in auricular thickness (auricular thickening) between Day 0 and Day 4 was evaluated as the degree of inflammation.
# as §1, with “weight MSP, 3 mg/kg body weight PCP, 10 mg/kg body weight PCP, 30 mg/kg” for “weight MSP, 30 mg/kg”, “body weight PCP, 3 mg/kg body weight VRG, 10 mg/kg body weight VRG, 30 mg/kg body weight VRG, and 10” for “body weight MSP, and 10”, “10 mL/kg each (Day” for “10 mL/kg body weight each (Day”
# as §1, with “(0.5% MC), 30 mg/kg body” for “(0.5% MC), 3 mg/kg body”, “body weight CNP, 30 mg/kg body weight VRG, 30 mg/kg body weight CBP, and 10” for “body weight MSP, and 10”
# as §1, with “MC),” for “MC), 3 mg/kg body weight MSP,”, “PCP, 30 mg/kg body weight CSP, 30 mg/kg body weight TGR,” for “MSP,”
# Psoriasis model mice were prepared by the same method as in Test Example 1, and Vehicle (0.5% MC), 30 mg/kg body weight FCT, 30 mg/kg body weight UMP, 30 mg/kg body weight RLP, 30 mg/kg body weight RZP, 30 mg/kg body weight MSP, and 10 mg/kg body weight APR (positive control) were orally administered at 10 mL/kg body weight each (Day 0 to Day 3) (n=6 per administration group). The difference in auricular thickness (auricular thickening) between Day 0 and Day 4 was evaluated as the degree of inflammation.
# Psoriasis model mice were prepared by the same method as in Test Example 1, and Vehicle (0.5% MC), 30 mg/kg body weight NRP, 30 mg/kg body weight CJ-033466, 30 mg/kg body weight RVP, 30 mg/kg body weight E-3620, 30 mg/kg body weight MSP, and 10 mg/kg body weight APR (positive control) were orally administered at 10 mL/kg body weight each (Day 0 to Day 3) (n=6 per administration group). […]
# [1] = Test Example 4, FIG. 4, 30 mg/kg body weight
# [2] = Test Example 7, FIG. 7, 30 mg/kg body weight
# [3] = Test Example 5, FIG. 5, 30 mg/kg body weight
# [4] = Test Example 6, FIG. 6, 30 mg/kg body weight
# [5] = Test Example 1, FIG. 1, 3 mg/kg body weight
# [6] = Test Example 3, FIG. 3, at all doses (3, 10 and 30 mg/kg body weight)
molecule,measurement,setting,value
"CCOc1cc([C@@H](CS(C)(=O)=O)N2C(=O)c3cccc(NC(C)=O)c3C2=O)ccc1OC [APR, Apremilast]",auricular thickening (difference in auricular thickness between Day 0 and Day 4) compared with 0.5% MC,"Test Example 1, FIG. 1, 10 mg/kg body weight",significantly suppressed the auricular thickening
same,auricular thickening (difference in auricular thickness between Day 0 and Day 4) compared with 0.5% MC,"Test Example 3, FIG. 3, 10 mg/kg body weight",significantly suppressed the auricular thickening
same,auricular thickening (difference in auricular thickness between Day 0 and Day 4) compared with 0.5% MC,"Test Example 4, FIG. 4, 10 mg/kg body weight",significantly suppressed the auricular thickening
same,auricular thickening (difference in auricular thickness between Day 0 and Day 4) compared with 0.5% MC,"Test Example 5, FIG. 5, 10 mg/kg body weight",significantly suppressed the auricular thickening
same,auricular thickening (difference in auricular thickness between Day 0 and Day 4) compared with 0.5% MC,"Test Example 6, FIG. 6, 10 mg/kg body weight",significantly suppressed the auricular thickening
same,auricular thickening (difference in auricular thickness between Day 0 and Day 4) compared with 0.5% MC,"Test Example 7, FIG. 7, 10 mg/kg body weight",significantly suppressed the auricular thickening
"COc1cc(N)c(Cl)cc1C(=O)NC1CCN(Cc2ccccc2)CC1 [CBP, Clebopride malate]",auricular thickening (difference in auricular thickness between Day 0 and Day 4) compared with 0.5% MC,[1],significantly suppressed the auricular thickening
Cc1cn2c(N)c(Cl)cc(C(=O)NCC3CCN(CC(C)C)CC3)c2n1 [CJ-033466],auricular thickening (difference in auricular thickness between Day 0 and Day 4) compared with 0.5% MC,[2],significantly suppressed the auricular thickening
"COc1cc(N)c(Cl)cc1C(=O)NC1CCN(CCCOc2ccc(F)cc2)CC1OC (stereo not shown) [CSP, Cisapride]",auricular thickening (difference in auricular thickness between Day 0 and Day 4) compared with 0.5% MC,[3],significantly suppressed the auricular thickening
CC#C[C@H](C)Oc1cc(N)c(Cl)cc1C(=O)NC1C[C@H]2CC[C@@H](C1)N2C.Cl (stereo partly shown) [E-3620],auricular thickening (difference in auricular thickness between Day 0 and Day 4) compared with 0.5% MC,[2],significantly suppressed the auricular thickening
"COC(=O)N1CCC(CN2CCC(CNC(=O)c3cccc4nc(C(C)C)[nH]c34)CC2)CC1 [FCT, Felcisetrag]",auricular thickening (difference in auricular thickness between Day 0 and Day 4) compared with 0.5% MC,[4],significantly suppressed the auricular thickening
"C[C@H]1CNCCc2ccc(Cl)cc21 [LCS, Lorcaserin hydrochloride]",auricular thickening (difference in auricular thickness between Day 0 and Day 4) compared with 0.5% MC,[5],"none of 3 mg/kg body weight RZT (5-HT1 receptor agonist) (comparative example), 3 mg/kg body weight TDS (5-HT1 receptor agonist) (comparative example), and 3 mg/kg body weight LCS (5-HT2 receptor agonist) (comparative example) suppressed the auricular thickening"
"COc1cc(N)c(Cl)cc1C(=O)N[C@@H]1CCN(CCCCCC(=O)O[C@H]2CN3CCC2CC3)C[C@@H]1OC [NRP, Naronapride hydrochloride]",auricular thickening (difference in auricular thickness between Day 0 and Day 4) compared with 0.5% MC,[2],significantly suppressed the auricular thickening
"COc1cc(N)c(Cl)cc1C(=O)NCC1CCN(CC[C@H](OC(N)=O)c2ccc(F)cc2)CC1.Cl [RLP, Relenopride hydrochloride]",auricular thickening (difference in auricular thickness between Day 0 and Day 4) compared with 0.5% MC,[4],significantly suppressed the auricular thickening
"COCCCN1CC[C@@H](CNC(=O)c2cc(Cl)c(N)c3c2OC(C)(C)C3)[C@H](O)C1 [RVP, Revexepride]",auricular thickening (difference in auricular thickness between Day 0 and Day 4) compared with 0.5% MC,[2],significantly suppressed the auricular thickening
"CN(C)CCc1c[nH]c2ccc(Cn3cncn3)cc12 [RZT, Rizatriptan benzoate]",auricular thickening (difference in auricular thickness between Day 0 and Day 4) compared with 0.5% MC,[5],"none of 3 mg/kg body weight RZT (5-HT1 receptor agonist) (comparative example), 3 mg/kg body weight TDS (5-HT1 receptor agonist) (comparative example), and 3 mg/kg body weight LCS (5-HT2 receptor agonist) (comparative example) suppressed the auricular thickening"
"[H]/N=C(/NCCCCC)N/N=C/c1c[nH]c2ccc(OC)cc12 [TGR, Tegaserod maleate]",auricular thickening (difference in auricular thickness between Day 0 and Day 4) compared with 0.5% MC,[3],significantly suppressed the auricular thickening
"COCCCN1CCC(c2nnc(-c3nn(C(C)C)c4ccccc34)o2)CC1 [UMP, Usmarapride]",auricular thickening (difference in auricular thickness between Day 0 and Day 4) compared with 0.5% MC,[4],significantly suppressed the auricular thickening
"CC(C)n1c(=O)c(C(=O)N[C@H]2C[C@H]3CC[C@@H](C2)N3C[C@@H](O)CN(C)S(C)(=O)=O)cc2ccccc21 [VRG, Velusetrag]",auricular thickening (difference in auricular thickness between Day 0 and Day 4) compared with 0.5% MC,[6],significantly suppressed the auricular thickening at all doses
same,auricular thickening (difference in auricular thickness between Day 0 and Day 4) compared with 0.5% MC,[1],significantly suppressed the auricular thickening
Cinitapride tartrate [CNP],auricular thickening (difference in auricular thickness between Day 0 and Day 4) compared with 0.5% MC,[1],significantly suppressed the auricular thickening
Mosapride citrate dihydrate [MSP],auricular thickening (difference in auricular thickness between Day 0 and Day 4) compared with 0.5% MC,[5],significantly suppressed the auricular thickening
same,auricular thickening (difference in auricular thickness between Day 0 and Day 4) compared with 0.5% MC,"Test Example 2, FIG. 2, 3 mg/kg body weight",significantly suppressed the auricular thickening in a dose-dependent manner
same,auricular thickening (difference in auricular thickness between Day 0 and Day 4) compared with 0.5% MC,"Test Example 2, FIG. 2, 30 mg/kg body weight",significantly suppressed the auricular thickening in a dose-dependent manner
same,auricular thickening (difference in auricular thickness between Day 0 and Day 4) compared with 0.5% MC,"Test Example 3, FIG. 3, 3 mg/kg body weight",significantly suppressed the auricular thickening
same,auricular thickening (difference in auricular thickness between Day 0 and Day 4) compared with 0.5% MC,[1],significantly suppressed the auricular thickening
same,auricular thickening (difference in auricular thickness between Day 0 and Day 4) compared with 0.5% MC,[4],significantly suppressed the auricular thickening
same,auricular thickening (difference in auricular thickness between Day 0 and Day 4) compared with 0.5% MC,[2],significantly suppressed the auricular thickening
Prucalopride succinate [PCP],auricular thickening (difference in auricular thickness between Day 0 and Day 4) compared with 0.5% MC,[6],significantly suppressed the auricular thickening at all doses
same,auricular thickening (difference in auricular thickness between Day 0 and Day 4) compared with 0.5% MC,[3],significantly suppressed the auricular thickening
Tandospirone citrate [TDS],auricular thickening (difference in auricular thickness between Day 0 and Day 4) compared with 0.5% MC,[5],"none of 3 mg/kg body weight RZT (5-HT1 receptor agonist) (comparative example), 3 mg/kg body weight TDS (5-HT1 receptor agonist) (comparative example), and 3 mg/kg body weight LCS (5-HT2 receptor agonist) (comparative example) suppressed the auricular thickening"
